Patent US12157730B2, “Heteroaryl derivative, method for producing same, and pharmaceutical composition comprising same as effective component” (VORONOI INC., priority 2019, dated 2024)

Molecular target: T1, Ba/F3 cell EGFR Exon20 ins NPH (Homo sapiens, UniProt P00533, INS773NPH)
T1 construct: expressed in transfected cells; host or cells: Ba/F3
Assay: Ba/F3 cell proliferation suppression, EGFR Exon20 ins NPH
Assay type: cell-based
Details: GI50 class; Ba/F3 cell line with NPH inserted at Exon20 of EGFR; 72 hours
In short: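 Growth suppression determined as GI50 following 72 h exposure across 12 concentrations up to 50 um, with viability by luminescent ATP assay (CellTiter-Glo).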

With `C=CC(=O)Nc1cc(Nc2cc(N3OCC[C@@H]3c3cc(F)cc(Cl)c3)ncn2)c(OC)cc1N1CCC(N2CCOCC2)CC1` [compound 589, N-(5-((6-((R)-3-(3-chloro-5-fluorophenyl)isoxazolidine-2-yl)pyrimidine-4-yl)amino)-4-methoxy-2-(4-morpholinopiperidine-1-yl)phenyl)acrylamide] the “Ba/F3 (NPH) Activity” value was “A (GI50 < 50 nM)”.
`C=CC(=O)Nc1cc(Nc2cc(N3OCC[C@@H]3c3cccc(Cl)c3)ncn2)c(OC)cc1N1CCC(N2C[C@@H](C)O[C@@H](C)C2)CC1` [compound 415, N-(5-((6-((R)-3-(3-chlorophenyl)isoxazolidine-2-yl)pyrimidine-4-yl)amino)-2-(4-((2S,6R)-2,6-dimethylmorpholino)piperidine-1-yl)-4-methoxyphenyl) acrylamide] was tested, and the “Ba/F3 (NPH) Activity” value was “A (GI50 < 50 nM)”.
With `C=CC(=O)Nc1cc(Nc2cc(N3OCC[C@@H]3c3cccc(Cl)c3F)ncn2)c(OC)cc1N1CCC(N2CCN(C3CC3)C[C@@H]2C)CC1` [Example 150, N-(5-((6-((R)-3-(3-chloro-2-fluorophenyl)isoxazolidine-2-yl)pyrimidine-4-yl)amino)-2-(4-((S)-4-cyclopropyl-2-methylpiperazine-1-yl)piperidine-1-yl)-4-methoxyphenyl) acrylamide] the “Ba/F3 (NPH) Activity” value was “A (GI50 < 50 nM)”.
`C=CC(=O)Nc1cc(Nc2cc(N3OCC[C@@H]3c3cc(F)ccc3F)ncn2)c(OC)cc1N1C[C@@H]2CCN(C)[C@@H]2C1` [compound 893, N-(5-((6-((R)-3-(2,5-difluorophenyl)isoxazolidine-2-yl)pyrimidine-4-yl)amino)-4-methoxy-2-((3aS,6aS)-1-methylhexahydropyrrolo [3,4-b]pyrrole-5(1H)-yl)phenyl) acrylamide] was tested, and the “Ba/F3 (NPH) Activity” value was “A (GI50 < 50 nM)”.
In the case of `C=CC(=O)Nc1cc(Nc2cc(N3OCC[C@@H]3c3cccc4ccccc34)ncn2)c(OC)cc1N1CCN(C2COC2)CC1` [compound 439, N-(4-methoxy-5-((6-((R)-3-(naphthalene-1-yl)isoxazolidine-2-yl)pyrimidine-4-yl)amino)-2-(4-(oxetane-3-yl)piperazine-1-yl)phenyl) acrylamide], the “Ba/F3 (NPH) Activity” value is reported as “A (GI50 < 50 nM)”.
`C=CC(=O)Nc1cc(Nc2cc(N3OCC[C@@H]3Cc3ccccc3)ncn2)c(OC)cc1N1C[C@@H]2C[C@H]1CN2CC` [compound 950, N-(5-((6-((S)-3-benzylisoxazolidine-2-yl)pyrimidine-4-yl)amino)-2-((1S,4S)-5-ethyl-2,5-diazabicyclo [2.2.1]heptane-2-yl)-4-methoxyphenyl) acrylamide] was tested, and the “Ba/F3 (NPH) Activity” value was “A (GI50 < 50 nM)”.
For `C=CC(=O)Nc1cc(Nc2cc(N3OCC[C@@H]3c3cccc(F)c3)ncn2)c(OC)cc1N1CCC(N2CC[C@H](N(C)C)C2)CC1` [compound 744, N-(2-(4-((S)-3-(dimethylamino)pyrolidine-1-yl)piperidine-1-yl)-5-((6-((R)-3-(3-fluorophenyl)isoxazolidine-2-yl)pyrimidine-4-yl)amino)-4-methoxyphenyl) acrylamide], the “Ba/F3 (NPH) Activity” value was “A (GI50 < 50 nM)”.
With `C=CC(=O)Nc1cc(Nc2cc(N3OCC[C@H]3c3c(F)cccc3F)ncn2)c(OC)cc1N1CCC(N2CCN(C)[C@@H](C)C2)CC1` [compound 313, N-(5-((6-((S)-3-(2,6-difluorophenyl)isoxazolidine-2-yl)pyrimidine-4-yl)amino)-2-(4-((S)-3,4-dimethylpiperazine-1-yl)piperidine-1-yl)-4-methoxyphenyl) acrylamide] the “Ba/F3 (NPH) Activity” value was “C (500 nM ≤ GI50 < 5000 nM)”.
In the case of `C=CC(=O)Nc1cc(Nc2cc(N3OCC[C@@H]3Cc3cccc(Cl)c3Cl)ncn2)c(OC)cc1N1CCC(N2CCN(C(C)C)CC2)CC1` [compound 1015, N-(5-((6-((S)-3-(2,3-dichlorobenzyl)isoxazolidine-2-yl)pyrimidine-4-yl)amino)-2-(4-(4-isopropylpiperazine-1-yl)piperidine-1-yl)-4-methoxyphenyl) acrylamide], the “Ba/F3 (NPH) Activity” value is reported as “A (GI50 < 50 nM)”.
For `C=CC(=O)Nc1cc(Nc2cc(N3OCC[C@@H]3c3cccc(C#N)c3)ncn2)c(OC)cc1N1CCC(N2CCN(C3CCC3)CC2)CC1` [Example 183, N-(5-((6-((R)-3-(3-cyanophenyl)isoxazolidine-2-yl)pyrimidine-4-yl)amino)-2-(4-(4-cyclobutylpiperazine-1-yl)piperidine-1-yl)-4-methoxyphenyl) acrylamide], the “Ba/F3 (NPH) Activity” value was “A (GI50 < 50 nM)”.
For `C=CC(=O)Nc1cc(Nc2cc(N3OCC[C@@H]3c3cc(F)cc(F)c3)ncn2)c(OC)cc1N1CCC(N2CCNCC2)CC1` [compound 754, N-(5-((6-((R)-3-(3,5-difluorophenyl)isoxazolidine-2-yl)pyrimidine-4-yl)amino)-4-methoxy-2-(4-(piperazine-1-yl)piperidine-1-yl)phenyl) acrylamide], the “Ba/F3 (NPH) Activity” value was “B (50 nM ≤ GI50 < 500 nM)”.
`C=CC(=O)Nc1cc(Nc2cc(N3OCC[C@@H]3c3cccc(F)c3Cl)ncn2)c(OC)cc1N1CCC(N2CCN(C3CC3)C[C@@H]2C)CC1` [Example 144, N-(5-((6-((R)-3-(2-chloro-3-fluorophenyl)isoxazolidine-2-yl)pyrimidine-4-yl)amino)-2-(4-((S)-4-cyclopropyl-2-methylpiperazine-1-yl)piperidine-1-yl)-4-methoxyphenyl) acrylamide] was tested, and the “Ba/F3 (NPH) Activity” value was “A (GI50 < 50 nM)”.
For `C=CC(=O)Nc1cc(Nc2cc(N3OCC[C@@H]3c3ccc4ccccc4c3)ncn2)c(OC)cc1N1CCC(N2CCN(C(C)=O)CC2)CC1` [compound 556, N-(2-(4-(4-acetylpiperazine-1-yl)piperidine-1-yl)-4-methoxy-5-((6-((R)-3-(naphthalene-2-yl)isoxazolidine-2-yl)pyrimidine-4-yl)amino)phenyl) acrylamide], the “Ba/F3 (NPH) Activity” value was “B (50 nM ≤ GI50 < 500 nM)”.
In the case of `C=CC(=O)Nc1cc(Nc2cc(N3OCC[C@@H]3Cc3cccc(F)c3C)ncn2)c(OC)cc1N1CCC(N2C[C@H]3C[C@@H]2CO3)CC1` [compound 1039, N-(2-(4-((1R,4R)-2-oxa-5-azabicyclo [2.2.1]heptane-5-yl)piperidine-1-yl)-5-((6-((S)-3-(3-fluoro-2-methylbenzyl)isoxazolidine-2-yl)pyrimidine-4-yl)amino)-4-methoxyphenyl) acrylamide], the “Ba/F3 (NPH) Activity” value is reported as “A (GI50 < 50 nM)”.
In the case of `C=CC(=O)Nc1cc(Nc2cc(N3OCC[C@@H]3c3cccc(Cl)c3Cl)ncn2)c(OC)cc1N1CCC(N2CCN(C(C)C)CC2)CC1` [compound 609, N-(5-((6-((R)-3-(2,3-dichlorophenyl)isoxazolidine-2-yl)pyrimidine-4-yl)amino)-2-(4-(4-isopropylpiperazine-1-yl)piperidine-1-yl)-4-methoxyphenyl) acrylamide], the “Ba/F3 (NPH) Activity” value is reported as “A (GI50 < 50 nM)”.
`C=CC(=O)Nc1cc(Nc2cc(N3OCC[C@@H]3c3cccc(Cl)c3F)ncn2)c(OC)cc1N1CCC(N2CCO[C@H](C)C2)CC1` [compound 357, N-(5-((6-((R)-3-(3-chloro-2-fluorophenyl)isoxazolidine-2-yl)pyrimidine-4-yl)amino)-4-methoxy-2-(4-((R)-2-methylmorpholino)piperidine-1-yl)phenyl) acrylamide] was tested, and the “Ba/F3 (NPH) Activity” value was “A (GI50 < 50 nM)”.
`C=CC(=O)Nc1cc(Nc2cc(N3OCC[C@@H]3c3ccc(Cl)c(Cl)c3)ncn2)c(OC)cc1N1C[C@@H]2C[C@H]1CO2` [compound 612, N-(2-((1S,4S)-2-oxa-5-azabicyclo[2.2.1]heptane-5-yl)-5-((6-((R)-3-(3,4-dichlorophenyl)isoxazolidine-2-yl)pyrimidine-4-l)amino)-4-methoxyphenyl) acrylamide] was tested, and the “Ba/F3 (NPH) Activity” value was “A (GI50 < 50 nM)”.
`C=CC(=O)Nc1cc(Nc2cc(N3OCC[C@@H]3Cc3cccc(F)c3)ncn2)c(OC)cc1N1CCN(C)CC1` [compound 991, N-(5-((6-((S)-3-(3-fluorobenzyl)isoxazolidine-2-yl)pyrimidine-4-yl)amino)-4-methoxy-2-(4-methylpiperazine-1-yl)phenyl)acrylamide] was tested, and the “Ba/F3 (NPH) Activity” value was “A (GI50 < 50 nM)”.
`C=CC(=O)Nc1cc(Nc2cc(N3OCC[C@H]3c3c(F)cccc3F)ncn2)c(OC)cc1N1CCN(C)CC1` [compound 307, N-(5-((6-((S)-3-(2,6-difluorophenyl)isoxazolidine-2-yl)pyrimidine-4-yl)amino)-4-methoxy-2-(4-methylpiperazine-1-yl)phenyl)acrylamide] was tested, and the “Ba/F3 (NPH) Activity” value was “C (500 nM ≤ GI50 < 5000 nM)”.
`C=CC(=O)Nc1cc(Nc2cc(N3OCC[C@@H]3Cc3ccc(C(F)(F)F)cc3)ncn2)c(OC)cc1N1CCN(C2CC2)CC1` [compound 1049, N-(2-(4-cyclopropylpiperazine-1-yl)-4-methoxy-5-((6-((S)-3-(4-(trifluoromethyl)benzyl)isoxazolidine-2-yl)pyrimidine-4-yl)amino)phenyl) acrylamide] was tested, and the “Ba/F3 (NPH) Activity” value was “C (500 nM ≤ GI50 < 5000 nM)”.
`C=CC(=O)Nc1cc(Nc2cc(N3OCC[C@@H]3c3ccc(F)c(Cl)c3F)ncn2)c(OC)cc1N1CCC(N2CCN(C)CC2)CC1` [compound 605, N-(5-((6-((R)-3-(3-chloro-2,4-difluorophenyl)isoxazolidine-2-yl)pyrimidine-4-yl)amino)-4-methoxy-2-(4-(4-methylpiperazine-1-yl)piperidine-1-yl)phenyl) acrylamide] was tested, and the “Ba/F3 (NPH) Activity” value was “A (GI50 < 50 nM)”.
With `C=CC(=O)Nc1cc(Nc2cc(N3OCC[C@@H]3c3cccc(Cl)c3F)ncn2)c(OC)cc1N1CC[C@@H](N(C)C)C1` [compound 834, N-(5-((6-((R)-3-(3-chloro-2-fluorophenyl)isoxazolidine-2-yl)pyrimidine-4-yl)amino)-2-((R)-3-(dimethylamino)pyrolidine-1-yl)-4-methoxyphenyl) acrylamide] the “Ba/F3 (NPH) Activity” value was “A (GI50 < 50 nM)”.
With `C=CC(=O)Nc1cc(Nc2cc(N3OCC[C@@H]3c3cccc(Cl)c3F)ncn2)c(OC)cc1N1CCC(N2CCO[C@@H](C)C2)CC1` [compound 356, N-(5-((6-((R)-3-(3-chloro-2-fluorophenyl)isoxazolidine-2-yl)pyrimidine-4-yl)amino)-4-methoxy-2-(4-((S)-2-methylmorpholino)piperidine-1-yl)phenyl) acrylamide] the “Ba/F3 (NPH) Activity” value was “A (GI50 < 50 nM)”.
